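Grown in 96-well plates, cells were treated for 48 hours with each compound at five concentrations. Insufficient inhibition: endpoint recorded as highest concentration tested. GI50: concentration for 50% inhibition of growth.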 Activity calls are given as the source filed them. Cut-off read from the data, not from the text of the source: active = GI50 up to about 1.1 µM and inactive = higher.
Key:
Test in all cases: NCI-60 cell line screen, 48 h
LOX IMVI = tested on: LOX IMVI
UACC-257 = tested on: UACC-257
SF-268 = tested on: SF-268
SK-MEL-2 = tested on: SK-MEL-2
A498 = tested on: A498
NCI/ADR-RES = tested on: NCI/ADR-RES
TK-10 = tested on: TK-10
HCT-15 = tested on: HCT-15
HL-60 = tested on: HL-60
T47D = tested on: T47D
ACHN = tested on: ACHN
BT-549 = tested on: BT-549
OVCAR-3 = tested on: OVCAR-3
COLO 205 = tested on: COLO 205
NCI-H460 = tested on: NCI-H460
UACC-62 = tested on: UACC-62
Hs-578T = tested on: Hs-578T
OVCAR-5 = tested on: OVCAR-5
IGROV-1 = tested on: IGROV-1

Compound	GI50 (LOX IMVI)	GI50 (UACC-257)	GI50 (SF-268)	GI50 (SK-MEL-2)	GI50 (A498)	GI50 (NCI/ADR-RES)	GI50 (TK-10)	GI50 (HCT-15) [µM]	GI50 (HL-60)	GI50 (T47D)	GI50 (ACHN)	GI50 (BT-549)	GI50 (OVCAR-3)	GI50 (COLO 205)	GI50 (NCI-H460)	GI50 (UACC-62)	GI50 (Hs-578T)	GI50 (OVCAR-5)	GI50 (IGROV-1)
CC1OC(O[C@H]2CC[C@]3(C)[C@H]4CC=C5[C@@H]6[C@@H](C)[C@H](C)CC[C@]6(C(=O)O)CC[C@@]5(C(=O)O)[C@]4(C)CC[C@H]3C2(C)C)C(O)C(O)C1O (stereo partly specified)	> 75 µM (inactive)	> 75 µM (inactive)	> 75 µM (inactive)	> 75 µM (inactive)	> 75 µM (inactive)	> 75 µM (inactive)	> 75 µM (inactive)	> 75	24.8 µM (inactive)	> 75 µM (inactive)	> 75 µM (inactive)	> 75 µM (inactive)	> 75 µM (inactive)	> 75 µM (inactive)	50.1 µM (inactive)	> 75 µM (inactive)	> 75 µM (inactive)	> 75 µM (inactive)	–
C=CC[C@]12C[C@@H](C(=O)OC)N(C(=O)OC)[C@H]1N(S(=O)(=O)c1ccccc1)c1ccccc12	–	45.7 µM (inactive)	78.2 µM (inactive)	42.3 µM (inactive)	81.1 µM (inactive)	68.2 µM (inactive)	> 100 µM (inactive)	40.1	29.6 µM (inactive)	30.9 µM (inactive)	95.1 µM (inactive)	> 100 µM (inactive)	87.9 µM (inactive)	–	73.8 µM (inactive)	–	42.9 µM (inactive)	31.4 µM (inactive)	43.1 µM (inactive)
O=[N+]([O-])c1cc(Br)cc2cc(Cl)cnc12	82.6 µM (inactive)	> 100 µM (inactive)	89.9 µM (inactive)	–	75.7 µM (inactive)	> 100 µM (inactive)	> 100 µM (inactive)	> 100	57.8 µM (inactive)	39.8 µM (inactive)	> 100 µM (inactive)	72.4 µM (inactive)	> 100 µM (inactive)	> 100 µM (inactive)	> 100 µM (inactive)	61.4 µM (inactive)	36.9 µM (inactive)	> 100 µM (inactive)	10.1 µM (inactive)
Clc1ccccc1/C=C/c1nsc(/C=C/c2ccccc2Cl)n1	37.2 µM (inactive)	26.5 µM (inactive)	55.5 µM (inactive)	> 100 µM (inactive)	> 100 µM (inactive)	45.2 µM (inactive)	30.8 µM (inactive)	38	21.6 µM (inactive)	10.4 µM (inactive)	50.4 µM (inactive)	92 µM (inactive)	40.1 µM (inactive)	47.4 µM (inactive)	21.4 µM (inactive)	–	> 100 µM (inactive)	> 100 µM (inactive)	84.1 µM (inactive)
NS(=O)(=O)c1nnc(NC(=O)c2cccc([N+](=O)[O-])c2)s1	> 100 µM (inactive)	> 100 µM (inactive)	> 100 µM (inactive)	> 100 µM (inactive)	–	> 100 µM (inactive)	> 100 µM (inactive)	> 100	> 100 µM (inactive)	> 100 µM (inactive)	> 100 µM (inactive)	> 100 µM (inactive)	> 100 µM (inactive)	> 100 µM (inactive)	> 100 µM (inactive)	> 100 µM (inactive)	> 100 µM (inactive)	> 100 µM (inactive)	–
C/C(=N\NC(=S)N(C)C)c1nc2cccnc2[nH]1	0.673 µM (active)	2.01 µM (inactive)	0.59 µM (active)	0.583 µM (active)	8.28 µM (inactive)	0.449 µM (active)	2.1 µM (inactive)	0.443	0.323 µM (active)	0.475 µM (active)	0.618 µM (active)	0.0398 µM (active)	–	0.325 µM (active)	0.478 µM (active)	0.396 µM (active)	1.22 µM (inactive)	0.504 µM (active)	0.804 µM (active)
N#Cc1c(-c2ccc(Cl)cc2)c2c(n(C3OC(CO)C(O)C(O)C3O)c1=S)CCC2 (stereo unspecified)	16.9 µM (inactive)	33.4 µM (inactive)	29 µM (inactive)	34.5 µM (inactive)	–	61.2 µM (inactive)	37.6 µM (inactive)	36.6	> 100 µM (inactive)	20.5 µM (inactive)	33 µM (inactive)	34.4 µM (inactive)	28 µM (inactive)	29.6 µM (inactive)	33 µM (inactive)	17.1 µM (inactive)	31.7 µM (inactive)	41.3 µM (inactive)	34.1 µM (inactive)
O=C(O)c1ccc2c(c1)CC1(C2)Cc2ccccc2C1=O (stereo unspecified)	> 100 µM (inactive)	> 100 µM (inactive)	> 100 µM (inactive)	> 100 µM (inactive)	–	> 100 µM (inactive)	> 100 µM (inactive)	> 100	> 100 µM (inactive)	> 100 µM (inactive)	> 100 µM (inactive)	> 100 µM (inactive)	> 100 µM (inactive)	> 100 µM (inactive)	> 100 µM (inactive)	> 100 µM (inactive)	> 100 µM (inactive)	> 100 µM (inactive)	> 100 µM (inactive)
S=c1[nH]c(Cl)cc2nc(Cl)cn12	7.85 µM (inactive)	> 100 µM (inactive)	5.11 µM (inactive)	3.85 µM (inactive)	14.4 µM (inactive)	2.54 µM (inactive)	7.5 µM (inactive)	4.68	–	23.4 µM (inactive)	8.61 µM (inactive)	9.89 µM (inactive)	2.59 µM (inactive)	2.83 µM (inactive)	13.6 µM (inactive)	6.93 µM (inactive)	2.3 µM (inactive)	–	4.34 µM (inactive)
CCCCc1ccc(-n2sc3ncccc3c2=O)cc1	5.66 µM (inactive)	16.3 µM (inactive)	8.75 µM (inactive)	12.2 µM (inactive)	–	14.4 µM (inactive)	14.4 µM (inactive)	5.52	0.908 µM (active)	13 µM (inactive)	11.4 µM (inactive)	19.1 µM (inactive)	10.2 µM (inactive)	17.3 µM (inactive)	5.26 µM (inactive)	12.4 µM (inactive)	15.7 µM (inactive)	18.5 µM (inactive)	12.3 µM (inactive)
Cc1oc2nc(N(C)C)n3cnnc3c2c1C	–	> 100 µM (inactive)	> 100 µM (inactive)	> 100 µM (inactive)	> 100 µM (inactive)	> 100 µM (inactive)	> 100 µM (inactive)	> 100	> 100 µM (inactive)	> 100 µM (inactive)	> 100 µM (inactive)	> 100 µM (inactive)	> 100 µM (inactive)	> 100 µM (inactive)	> 100 µM (inactive)	> 100 µM (inactive)	> 100 µM (inactive)	> 100 µM (inactive)	> 100 µM (inactive)
CC(C)(CCC(C)(C)N1OC1c1ccccc1)N1OC1c1ccccc1 (stereo unspecified)	26.4 µM (inactive)	25.1 µM (inactive)	95.1 µM (inactive)	21.5 µM (inactive)	32 µM (inactive)	58.6 µM (inactive)	22.8 µM (inactive)	28.6	21 µM (inactive)	41.1 µM (inactive)	19.8 µM (inactive)	38.3 µM (inactive)	–	47.2 µM (inactive)	33 µM (inactive)	> 100 µM (inactive)	36.2 µM (inactive)	–	–
NC(=O)NNc1nc(-c2ccccc2)cs1	> 100 µM (inactive)	> 100 µM (inactive)	> 100 µM (inactive)	> 100 µM (inactive)	> 100 µM (inactive)	> 100 µM (inactive)	> 100 µM (inactive)	> 100	–	> 100 µM (inactive)	> 100 µM (inactive)	> 100 µM (inactive)	> 100 µM (inactive)	> 100 µM (inactive)	> 100 µM (inactive)	> 100 µM (inactive)	> 100 µM (inactive)	> 100 µM (inactive)	> 100 µM (inactive)
Cc1ccc2nc(C(C)C)c(=O)[nH]c2c1	–	> 100 µM (inactive)	> 100 µM (inactive)	15 µM (inactive)	> 100 µM (inactive)	54.7 µM (inactive)	> 100 µM (inactive)	> 100	> 100 µM (inactive)	> 100 µM (inactive)	> 100 µM (inactive)	> 100 µM (inactive)	18.8 µM (inactive)	> 100 µM (inactive)	> 100 µM (inactive)	> 100 µM (inactive)	42.3 µM (inactive)	> 100 µM (inactive)	> 100 µM (inactive)
O=C1C2CC=CCC2C(=O)N1n1c(Cc2ccccc2)n[nH]c1=O (stereo unspecified)	> 100 µM (inactive)	> 100 µM (inactive)	> 100 µM (inactive)	> 100 µM (inactive)	> 100 µM (inactive)	> 100 µM (inactive)	> 100 µM (inactive)	> 100	–	> 100 µM (inactive)	> 100 µM (inactive)	> 100 µM (inactive)	> 100 µM (inactive)	> 100 µM (inactive)	> 100 µM (inactive)	> 100 µM (inactive)	> 100 µM (inactive)	> 100 µM (inactive)	> 100 µM (inactive)
Cc1ncc2c(=O)c3c(oc2n1)c1ccccc1n3Cc1ccccc1	> 100 µM (inactive)	> 100 µM (inactive)	> 100 µM (inactive)	–	–	> 100 µM (inactive)	> 100 µM (inactive)	> 100	> 100 µM (inactive)	7.24 µM (inactive)	53.5 µM (inactive)	> 100 µM (inactive)	> 100 µM (inactive)	> 100 µM (inactive)	> 100 µM (inactive)	27 µM (inactive)	> 100 µM (inactive)	> 100 µM (inactive)	> 100 µM (inactive)

— ChEMBL document CHEMBL1201862, “PubChem BioAssay data set” (2004)
